Source: publication PMC9234962, “Optimization of Peptide Linker-Based Fluorescent Ligands for the Histamine H1 Receptor” (Journal of Medicinal Chemistry, 2022)

Molecular target: Nluc-H1R (Homo sapiens, UniProt P35367)
Assay: NanoBRET saturation binding assay on Nluc-H1R expressing HEK293T cells
Parameters: expressed in transfected cells
Settings: saturation binding curves, whole HEK293T cells; for pKD: non-specific with 10 μM mepyramine, mean ± SEM
Excerpt: Total and non-specific saturation binding curves from NanoBRET saturation binding assay were fitted simultaneously using eq 1: [drawing 4] 1 where Bmax is the maximal specific binding, [B] is the concentration of fluorescent ligand in nM, KD is the equilibrium dissociation constant in nM, M is the slope of the non-specific component, and C is the intercept with the Y axis.

Nluc-H1R, sequence (P35367 whole entry): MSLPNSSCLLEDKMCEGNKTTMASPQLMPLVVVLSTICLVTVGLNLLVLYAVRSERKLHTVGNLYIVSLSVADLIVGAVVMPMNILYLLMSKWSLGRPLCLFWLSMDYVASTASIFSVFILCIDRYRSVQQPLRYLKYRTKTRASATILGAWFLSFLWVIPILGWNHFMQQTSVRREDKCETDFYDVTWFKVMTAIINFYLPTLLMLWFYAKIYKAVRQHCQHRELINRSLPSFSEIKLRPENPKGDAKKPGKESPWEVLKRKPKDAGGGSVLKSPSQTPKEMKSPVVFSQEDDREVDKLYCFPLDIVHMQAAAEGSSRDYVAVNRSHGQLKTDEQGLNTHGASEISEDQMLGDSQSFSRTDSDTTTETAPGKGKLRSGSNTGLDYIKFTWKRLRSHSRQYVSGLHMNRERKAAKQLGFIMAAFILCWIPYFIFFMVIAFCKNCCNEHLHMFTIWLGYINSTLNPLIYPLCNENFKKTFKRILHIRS

Row | SMILES | Kd [nM] | pKD
1 | CC(C)[C@H](NC(=O)CCN1CCC(Oc2ccccc2Cc2ccccc2)CC1)C(=O)N[C@@H](CCC(=O)O)C(=O)N[C@@H](CC(N)=O)C(=O)N[C@@H](Cn1cc(COc2ccc(/C=C/C3=[N+]4C(=Cc5ccc(-c6cccs6)n5[B-]4(F)F)C=C3)cc2)nn1)C(N)=O [Compound 22c, (S)-5-(((S)-4-Amino-1-(((S)-1-amino-3-(4-((4-((E)-2-(5,5-difluoro-7-(thiophen-2-yl)-5H-5λ^4,6λ^4-dipyrrolo[1,2-c:2’,1’-f][1,3,2]diazaborinin-3-yl)vinyl)phenoxy)methyl)-1H-1,2,3-triazol-1-yl)-1-oxopropan-2-yl)amino)-1,4-dioxobutan-2-yl)amino)-4-((S)-2-(3-(4-(2-benzylphenoxy)piperidin-1-yl)propanamido)-3-methylbutanamido)-5-oxopentanoic Acid] | 162 | 6.79 ± 0.04
2 | CC(C)[C@H](NC(=O)CCN1CCC(Oc2ccccc2Cc2ccccc2)CC1)C(=O)N[C@@H](CO)C(=O)N[C@@H](CC(N)=O)C(=O)NCCC(=O)N[C@@H](CCCn1cc(COc2ccc(/C=C/C3=[N+]4C(=Cc5ccc(-c6cccs6)n5[B-]4(F)F)C=C3)cc2)nn1)C(N)=O [Compound 28a, (S)-N1-(3-(((S)-1-Amino-5-(4-((4-((E)-2-(5,5-difluoro-7-(thiophen-2-yl)-5H-5λ^4,6λ^4-dipyrrolo[1,2-c:2’,1’-f][1,3,2]diazaborinin-3-yl)vinyl)phenoxy)methyl)-1H-1,2,3-triazol-1-yl)-1-oxopentan-2-yl)amino)-3-oxopropyl)-2-((S)-2-((S)-2-(3-(4-(2-benzylphenoxy)piperidin-1-yl)propanamido)-3-methylbutanamido)-3-hydroxypropanamido)succinamide] | 20 | 7.70 ± 0.05
3 | C[C@H](NC(=O)CCN1CCC(Oc2ccccc2Cc2ccccc2)CC1)C(=O)N[C@@H](C)C(=O)N[C@@H](C)C(=O)NCCC(=O)N[C@@H](CCCn1cc(COc2ccc(/C=C/C3=[N+]4C(=Cc5ccc(-c6cccs6)n5[B-]4(F)F)C=C3)cc2)nn1)C(N)=O [Compound 28b, (S)-2-((6S,9S,12S)-16-(4-(2-Benzylphenoxy)piperidin-1-yl)-6,9,12-trimethyl-5,8,11,14-tetraoxo-4,7,10,13-tetraazahexadecanamido)-5-(4-((4-((E)-2-(5,5-difluoro-7-(thiophen-2-yl)-5H-5λ^4,6λ^4-dipyrrolo[1,2-c:2’,1’-f][1,3,2]diazaborinin-3-yl)vinyl)phenoxy)methyl)-1H-1,2,3-triazol-1-yl)pentanamide] | 14 | 7.86 ± 0.06
4 | CC(C)[C@H](NC(=O)CCN(C)CC/C=C1\c2ccccc2COc2ccccc21)C(=O)N[C@@H](CO)C(=O)N[C@@H](CC(N)=O)C(=O)NCCC(=O)N[C@@H](CCCn1cc(COc2ccc(/C=C/C3=[N+]4C(=Cc5ccc(-c6cccs6)n5[B-]4(F)F)C=C3)cc2)nn1)C(N)=O [Compound 28c, (S)-N1-(3-(((S)-1-Amino-5-(4-((4-((E)-2-(5,5-difluoro-7-(thiophen-2-yl)-5H-5λ^4,6λ^4-dipyrrolo[1,2-c:2’,1’-f][1,3,2]diazaborinin-3-yl)vinyl)phenoxy)methyl)-1H-1,2,3-triazol-1-yl)-1-oxopentan-2-yl)amino)-3-oxopropyl)-2-((S)-2-((S)-2-(3-(((E)-3-(dibenzo[b,e]oxepin-11(6H)-ylidene)propyl)(methyl)amino)propanamido)-3-methylbutanamido)-3-hydroxypropanamido)succinamide] | 19 | 7.72 ± 0.11
5 | C[C@H](NC(=O)CCN(C)CC/C=C1\c2ccccc2COc2ccccc21)C(=O)N[C@@H](C)C(=O)N[C@@H](C)C(=O)NCCC(=O)N[C@@H](CCCn1cc(COc2ccc(/C=C/C3=[N+]4C(=Cc5ccc(-c6cccs6)n5[B-]4(F)F)C=C3)cc2)nn1)C(N)=O [Compound 28d] | 5 | 8.27 ± 0.05
